Laboratory results taken from patent publication US11028087B2, “2,6-disubstituted-9-cyclopentyl-9H-purines, use thereof as medicaments, and pharmaceutical compositions” (UNIVERZITA PALACKEHO V OLOMOUCI, priority 2017, dated 2021).
Where two headings read alike, the source gives them in different places.

What was measured:
[1] = test system: MV4-11 (acute myeloid leukemia, FLT3-ITD positive); assay: Calcein AM cytotoxicity assay; format: cell-based; conditions: Homo sapiens
Excerpt: (§1) Cytotoxicity of the compounds is the major property determining their anticancer effect in vivo. One of the parameters used, as the basis for cytotoxicity assays, is the integrity of cytoplasmic membrane of viable cells. For example, a microtiter assay, which uses acetomethoxy derivate of calcein (Calcein AM), is widely used for evaluation of cell proliferation and cytotoxicity. This assay is used in drug screening programs and in chemosensitivity testing. Intracellular esterases of viable cells convert calcein AM to green-fluorescent calcein of which signal corresponds to the number of viable cells in the culture.
(§2) We have been using the following cell lines: MV4-11 (acute myeloid leukemia, FLT3-ITD positive), MOLM-13 (acute myeloid leukemia, FLT3-ITD positive), THP-1 (acute myeloid leukemia, wt FLT3), U937 (monocytic leukemia, wt FLT3), EOL-1 (eosinophilic leukaemia, carrying the fusion FIP1L1-PDGFRA), H1703 (non-small cell lung carcinoma, PDGFRA amplification). […] K562 and MCF-7 cell lines were maintained in DMEM supplemented with 10% fetal bovine serum, penicilin (100 U/ml) and streptomycin (100 μg/ml). All cell lines were cultivated at 37° C. in 5% CO2. For cytotoxicity assays, cells were seeded in appropriate densities into 96 well plates and the next day tested compounds were added at various concentrations in triplicates. Three days after drug addition, Calcein AM solution (final concentration 1 μg/ml; Thermo Scientific, USA) was added into each well and incubated for 1 h.

K562 = assay: Calcein AM cytotoxicity assay; format: cell-based; conditions: Homo sapiens
Excerpt: as §1, §2

[2] = test system: THP-1 (acute myeloid leukemia, wt FLT3); assay: Calcein AM cytotoxicity assay; format: cell-based; conditions: Homo sapiens
Excerpt: as §1, §2

[3] = test system: U937 (monocytic leukemia, wt FLT3); assay: Calcein AM cytotoxicity assay; format: cell-based; conditions: Homo sapiens
Excerpt: as §1, §2

[4] = test system: EOL-1 (eosinophilic leukaemia, carrying the fusion FIP1L1-PDGFRA); assay: Calcein AM cytotoxicity assay; format: cell-based; conditions: Homo sapiens
Excerpt: as §1, §2

MCF-7 = assay: Calcein AM cytotoxicity assay; format: cell-based; conditions: Homo sapiens
Excerpt: as §1, §2

[5] = test system: MOLM-13 (acute myeloid leukemia, FLT3-ITD positive); assay: Calcein AM cytotoxicity assay; format: cell-based; conditions: Homo sapiens
Excerpt: as §1, §2

CDK2/Cyclin E = biological target: T1, CDK2/Cyclin E (Homo sapiens, UniProt P24941); assay: Kinase inhibition assay with [γ-33P]ATP; format: biochemical
T1 construct: made in house; host or cells: Sf9 insect cells, baculoviral infection
Method: (§3) CDK1/Cyclin B and CDK2/Cyclin E kinases were produced in Sf9 insect cells via baculoviral infection and purified on a NiNTA column (Qiagen). CDK5/p35 and CDK7Cyclin H/MAT1, FLT3 WT, FLT3-ITD and FLT3 D835 were purchased from ProQinase GmbH. The kinase reactions were assayed with 1 mg/mL histone H1 (for CDK1, CDK2 and CDK5), (YSPTSPS)2KK peptide (for CDK7) or AGLT substrate (for FLT3) in the presence of 15/15/0.15/1.5/1 μM ATP (for CDK1/CDK2/CDK5/CDK7/FLT3), 0.05 μCi [γ-^33P]ATP and of the test compound in a final volume of 10 μL, all in a reaction buffer (60 mM HEPES-NaOH, pH 7.5, 3 mM MgCl2, 3 mM MnCl2, 3 μM Na-orthovanadate, 1.2 mM DTT, 2.5 μg/50 μl PEG20,000). The reactions were stopped by adding 5 μL of 3% aq H3PO4. Aliquots were spotted onto P-81 phosphocellulose (Whatman), washed 3× with 0.5% aq H3PO4 and finally air-dried.

FLT3-ITD = biological target: T2, FLT3-ITD (Homo sapiens, UniProt P36888); assay: Kinase inhibition assay with [γ-33P]ATP; format: biochemical; conditions: comparative example; read-out: Influence of compounds on protein kinase inhibition, IC50 values (μM) FLT3 ITD
T2 sequence (P36888 1-993): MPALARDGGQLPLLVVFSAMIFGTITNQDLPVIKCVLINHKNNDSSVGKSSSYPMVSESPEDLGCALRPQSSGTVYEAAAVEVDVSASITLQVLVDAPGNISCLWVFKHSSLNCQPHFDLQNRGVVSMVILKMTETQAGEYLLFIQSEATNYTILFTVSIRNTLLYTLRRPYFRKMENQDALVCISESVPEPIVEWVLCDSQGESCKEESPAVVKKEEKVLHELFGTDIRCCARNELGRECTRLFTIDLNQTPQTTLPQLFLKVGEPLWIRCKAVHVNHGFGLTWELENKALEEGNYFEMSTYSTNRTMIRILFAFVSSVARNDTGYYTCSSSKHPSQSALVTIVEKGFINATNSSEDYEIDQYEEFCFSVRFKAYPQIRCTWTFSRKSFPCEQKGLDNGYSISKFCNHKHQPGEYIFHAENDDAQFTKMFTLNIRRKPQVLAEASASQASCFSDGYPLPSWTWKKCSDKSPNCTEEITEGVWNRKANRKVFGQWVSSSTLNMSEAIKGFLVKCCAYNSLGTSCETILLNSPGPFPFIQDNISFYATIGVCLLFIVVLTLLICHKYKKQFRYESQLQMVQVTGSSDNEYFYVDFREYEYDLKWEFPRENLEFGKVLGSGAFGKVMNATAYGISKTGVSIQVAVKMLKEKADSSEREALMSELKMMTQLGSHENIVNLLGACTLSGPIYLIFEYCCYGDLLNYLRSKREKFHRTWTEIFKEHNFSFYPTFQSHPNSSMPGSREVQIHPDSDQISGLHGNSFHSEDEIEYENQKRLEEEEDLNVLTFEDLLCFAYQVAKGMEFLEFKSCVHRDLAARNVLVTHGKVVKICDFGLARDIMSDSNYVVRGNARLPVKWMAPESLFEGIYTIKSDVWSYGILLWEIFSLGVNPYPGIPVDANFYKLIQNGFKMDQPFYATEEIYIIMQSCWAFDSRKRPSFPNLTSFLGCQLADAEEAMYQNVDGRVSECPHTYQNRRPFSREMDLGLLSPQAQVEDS
Method: as §3

[6] = test system: Kasumi-1 (acute myeloid leukemia, KIT mutation Asn822Lys); assay: Calcein AM cytotoxicity assay; format: cell-based; conditions: Homo sapiens
Excerpt: as §1
We have been using the following cell lines: MV4-11 (acute myeloid leukemia, FLT3-ITD positive), MOLM-13 (acute myeloid leukemia, FLT3-ITD positive), THP-1 (acute myeloid leukemia, wt FLT3), U937 (monocytic leukemia, wt FLT3), EOL-1 (eosinophilic leukaemia, carrying the fusion FIP1L1-PDGFRA), H1703 (non-small cell lung carcinoma, PDGFRA amplification). They were maintained in RPMI-1640 supplemented with 10% fetal bovine serum, penicillin (100 U/ml) and streptomycin (100 μg/ml). Kasumi-1 (acute myeloid leukemia, KIT mutation Asn822Lys) cells were cultivated in RPMI-1640 supplemented with 15% fetal bovine serum, penicillin (100 U/ml) and streptomycin (100 μg/ml). K562 and MCF-7 cell lines were maintained in DMEM supplemented with 10% fetal bovine serum, penicilin (100 U/ml) and streptomycin (100 μg/ml). All cell lines were cultivated at 37° C. in 5% CO2. For cytotoxicity assays, cells were seeded in appropriate densities into 96 well plates and the next day tested compounds were added at various concentrations in triplicates. Three days after drug addition, Calcein AM solution (final concentration 1 μg/ml; Thermo Scientific, USA) was added into each well and incubated for 1 h. After this incubation period, fluorescence of the live cells was measured at 485 nm/538 nm (ex/em) with a Fluoroskan Ascent microplate reader (Labsystems).

CDK5/p35 = biological target: T3, CDK5/p35 (Homo sapiens, UniProt Q00535); assay: Kinase inhibition assay with [γ-33P]ATP; format: biochemical; conditions: histone H1, 0.15 μM ATP
T3 construct: purchased ProQinase GmbH
T3 sequence (Q00535 whole entry): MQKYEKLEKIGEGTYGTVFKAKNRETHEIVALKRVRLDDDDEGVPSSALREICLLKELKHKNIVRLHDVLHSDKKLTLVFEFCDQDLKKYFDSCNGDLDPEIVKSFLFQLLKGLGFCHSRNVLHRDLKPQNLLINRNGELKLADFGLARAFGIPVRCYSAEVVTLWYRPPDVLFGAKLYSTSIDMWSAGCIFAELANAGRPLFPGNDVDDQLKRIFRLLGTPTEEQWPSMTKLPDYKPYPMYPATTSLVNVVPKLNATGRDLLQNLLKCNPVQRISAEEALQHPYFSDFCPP
T3 sequence (Q15078 whole entry partner): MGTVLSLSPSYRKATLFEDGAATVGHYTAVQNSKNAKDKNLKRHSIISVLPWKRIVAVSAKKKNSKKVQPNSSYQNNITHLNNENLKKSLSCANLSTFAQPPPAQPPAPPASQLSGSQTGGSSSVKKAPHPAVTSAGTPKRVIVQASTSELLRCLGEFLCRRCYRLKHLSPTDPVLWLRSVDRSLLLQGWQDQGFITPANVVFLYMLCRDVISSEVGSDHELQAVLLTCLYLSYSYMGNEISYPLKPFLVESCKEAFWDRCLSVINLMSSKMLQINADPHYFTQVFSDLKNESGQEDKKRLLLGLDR
Method: as §3

FLT3 WT = biological target: T4, FLT3 WT (Homo sapiens, UniProt P36888); assay: Kinase inhibition assay with [γ-33P]ATP; format: biochemical; conditions: AGLT substrate, 1 μM ATP
T4 construct: purchased ProQinase GmbH
T4 sequence (P36888 27-993): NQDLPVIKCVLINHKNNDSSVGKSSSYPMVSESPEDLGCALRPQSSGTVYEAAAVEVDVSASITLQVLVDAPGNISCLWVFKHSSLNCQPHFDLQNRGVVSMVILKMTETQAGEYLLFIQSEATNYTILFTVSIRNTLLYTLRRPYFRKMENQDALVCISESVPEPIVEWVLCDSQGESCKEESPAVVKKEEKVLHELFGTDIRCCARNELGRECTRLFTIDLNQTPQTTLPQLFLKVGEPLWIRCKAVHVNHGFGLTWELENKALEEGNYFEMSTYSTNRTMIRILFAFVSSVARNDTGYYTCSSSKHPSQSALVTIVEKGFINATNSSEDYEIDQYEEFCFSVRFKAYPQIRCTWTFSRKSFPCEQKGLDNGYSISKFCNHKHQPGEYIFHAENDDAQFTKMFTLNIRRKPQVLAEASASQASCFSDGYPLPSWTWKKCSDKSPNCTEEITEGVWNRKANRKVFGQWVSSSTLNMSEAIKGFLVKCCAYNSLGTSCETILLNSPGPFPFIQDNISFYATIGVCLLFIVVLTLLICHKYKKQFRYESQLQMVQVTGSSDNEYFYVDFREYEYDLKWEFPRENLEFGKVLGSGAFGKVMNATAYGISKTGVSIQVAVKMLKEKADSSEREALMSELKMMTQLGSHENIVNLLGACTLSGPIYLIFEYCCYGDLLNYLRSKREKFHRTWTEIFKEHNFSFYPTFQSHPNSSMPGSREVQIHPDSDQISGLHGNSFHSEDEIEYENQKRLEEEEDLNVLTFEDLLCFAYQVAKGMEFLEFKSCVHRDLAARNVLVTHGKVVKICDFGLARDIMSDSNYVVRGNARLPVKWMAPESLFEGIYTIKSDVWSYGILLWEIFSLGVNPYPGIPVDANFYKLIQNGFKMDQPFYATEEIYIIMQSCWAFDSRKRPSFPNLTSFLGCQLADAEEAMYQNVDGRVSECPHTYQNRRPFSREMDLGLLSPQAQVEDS
Method: as §3

CDK1/Cyclin B = biological target: T5, CDK1/Cyclin B (Homo sapiens, UniProt P06493); assay: Kinase inhibition assay with [γ-33P]ATP; format: biochemical; conditions: histone H1, 15 μM ATP
T5 construct: made in house; host or cells: Sf9 insect cells, baculoviral infection
T5 sequence (P06493 whole entry, species assumed): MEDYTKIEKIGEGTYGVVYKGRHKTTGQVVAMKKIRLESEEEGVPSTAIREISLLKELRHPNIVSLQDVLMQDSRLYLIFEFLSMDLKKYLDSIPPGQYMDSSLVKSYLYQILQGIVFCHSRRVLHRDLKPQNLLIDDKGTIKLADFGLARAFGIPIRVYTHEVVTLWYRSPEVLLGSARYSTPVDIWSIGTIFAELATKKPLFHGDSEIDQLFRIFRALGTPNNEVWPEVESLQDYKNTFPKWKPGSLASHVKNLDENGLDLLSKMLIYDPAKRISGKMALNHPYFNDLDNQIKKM
T5 sequence (P14635 whole entry partner, species assumed): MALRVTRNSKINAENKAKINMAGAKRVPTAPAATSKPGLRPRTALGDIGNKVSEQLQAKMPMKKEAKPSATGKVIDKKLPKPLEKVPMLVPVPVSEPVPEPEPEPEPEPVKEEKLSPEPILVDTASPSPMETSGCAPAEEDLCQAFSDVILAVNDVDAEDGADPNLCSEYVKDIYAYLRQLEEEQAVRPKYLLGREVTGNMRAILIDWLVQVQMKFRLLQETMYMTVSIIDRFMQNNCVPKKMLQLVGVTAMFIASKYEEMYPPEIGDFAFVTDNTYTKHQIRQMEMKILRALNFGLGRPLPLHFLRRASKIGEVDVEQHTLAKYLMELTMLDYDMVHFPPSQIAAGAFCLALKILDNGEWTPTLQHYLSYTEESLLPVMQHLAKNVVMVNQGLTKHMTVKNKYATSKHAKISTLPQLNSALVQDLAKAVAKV
Method: as §3

[7] = comparative example, MV4-11, 72 h, read-out: Influence of compounds on proliferation (72 h), EC50 values (μM) MV4-11
[8] = comparative example, K562, 72 h, read-out: Influence of compounds on proliferation (72 h), EC50 values (μM) K562
[9] = comparative example, MOLM-13, 72 h, read-out: Influence of compounds on proliferation (72 h), EC50 values (μM) MOLM-13
[10] = comparative example, read-out: Influence of compounds on protein kinase inhibition, IC50 values (μM) CDK2
[11] = 72 h, MV4-11, Calcein AM, three days after drug addition, read-out: EC50 values (μM) MV4-11
[12] = 72 h, K562, Calcein AM, three days, read-out: EC50 values (μM) K562
[13] = 72 h, THP-1, Calcein AM, three days, read-out: EC50 values (μM) THP-1
[14] = U-937, 72 h, U937, Calcein AM, three days, read-out: EC50 values (μM) U937
[15] = EOL1, 72 h, EOL-1, Calcein AM, three days, read-out: EC50 values (μM) EOL-1
[16] = MCF7, 72 h, MCF-7, Calcein AM, three days, read-out: EC50 values (μM) MCF-7
[17] = 72 h, MOLM-13, Calcein AM, three days, read-out: EC50 values (μM) MOLM-13
[18] = 72 h, Kasumi-1, Calcein AM, three days, read-out: EC50 values (μM) Kasumi-1
[19] = histone H1, 15 μM ATP, read-out: IC50 values (μM) CDK2

SMILES | EC50 [1, 7] [µM] | EC50 (K562; [8]) [µM] | EC50 [5, 9] [µM] | IC50 (CDK2/Cyclin E; [10]) [µM] | IC50 (FLT3-ITD) [µM] | EC50 [1, 11] [µM] | EC50 (K562; [12]) [µM] | EC50 [2, 13] [µM] | EC50 [3, 14] [µM] | EC50 [4, 15] [µM] | EC50 (MCF-7; [16]) [µM] | EC50 [5, 17] [µM] | EC50 [6, 18] [µM] | IC50 (CDK5/p35) [µM] | IC50 (CDK2/Cyclin E; [19]) [µM] | IC50 (FLT3 WT) [µM] | IC50 (CDK1/Cyclin B) [µM] | also measured
NC1CCC(Nc2nc(Nc3ccc(CN4CCOCC4)cc3)c3ncn(Cc4ccccc4)c3n2)CC1 (stereo not drawn) [Benzyl derivative of compound 264, reference compound] | 0.393 | 2.69 | 1.26 | 7.51 | 1.03 | – | – | – | – | – | – | – | – | – | – | – | – | EC50 ([2]; comparative example, THP-1, 72 h, read-out: Influence of compounds on proliferation (72 h), EC50 values (μM) THP-1): 14.8 µM; EC50 ([3]; U-937, comparative example, U937, 72 h, read-out: Influence of compounds on proliferation (72 h), EC50 values (μM) U937): 2.62 µM; EC50 ([4]; EOL1, comparative example, EOL-1, 72 h, read-out: Influence of compounds on proliferation (72 h), EC50 values (μM) EOL-1): 0.491 µM; EC50 (MCF-7; MCF7, comparative example, MCF-7, 72 h, read-out: Influence of compounds on proliferation (72 h), EC50 values (μM) MCF-7): 4.83 µM
NCCCCCCNc1nc(Nc2ccc(CN3CCOCC3)cc2)c2ncn(C3CCCC3)c2n1 [Compound 38] | – | – | – | – | – | 0.086 | 4.57 | 3.59 | 2.92 | 0.276 | 5.55 | 0.064 | 1.23 | 8.16 | 3.56 | 0.021 | 6.16 | –
NCCCCCNc1nc(Nc2ccc(CN3CCOCC3)cc2)c2ncn(C3CCCC3)c2n1 [Compound 267] | – | – | – | – | – | 0.032 | 1.79 | 2.42 | 3.63 | 0.071 | 2.27 | 0.02 | 1.25 | 3.71 | 2.04 | 0.025 | 6.05 | –
NC1CCC(Nc2nc(Nc3ccc(CN4CCOCC4)cc3)c3ncn(-c4ccccc4)c3n2)CC1 (stereo not drawn) [Phenyl derivative of compound 264, reference compound] | 0.648 | 1.81 | 0.912 | > 5 | 0.759 | – | – | – | – | – | – | – | – | – | – | – | – | EC50 ([6]; comparative example, Kasumi-1, 72 h, read-out: Influence of compounds on proliferation (72 h), EC50 values (μM) Kasumi-1): 0.722 µM
